ChEMBL document CHEMBL1201862, “PubChem BioAssay data set” (2004)
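Tested at 5 concentrations; 48 h exposure; 96-well plates; endpoints linearly interpolated, else capped at highest concentration. GI50 marks 50% less growth.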 Calls of active or inactive are those of the source. No stated cut-off is given here; in the data, active = GI50 up to about 1.1 µM and inactive = higher.

Tests used:
Test in all cases: NCI-60 cell line screen, 48 h
U-251 = test system: U-251
HCC 2998 = test system: HCC 2998
OVCAR-3 = test system: OVCAR-3
SNB-75 = test system: SNB-75
EKVX = test system: EKVX
LOX IMVI = test system: LOX IMVI
UACC-62 = test system: UACC-62
NCI-H23 = test system: NCI-H23
SW-620 = test system: SW-620
OVCAR-8 = test system: OVCAR-8
COLO 205 = test system: COLO 205
RPMI-8226 = test system: RPMI-8226
SF-539 = test system: SF-539
786-0 = test system: 786-0
SN12C = test system: SN12C
K562 = test system: K562
HOP-62 = test system: HOP-62
OVCAR-4 = test system: OVCAR-4
Malme-3M = test system: Malme-3M

Measured: GI50

C(=N/Nc1ccccn1)/c1cccnc1
inactive: U-251 > 100 µM | HCC 2998 > 100 µM | OVCAR-3 > 100 µM | SNB-75 58.6 µM | EKVX 49.4 µM | LOX IMVI > 100 µM | UACC-62 94.6 µM | NCI-H23 75 µM | SW-620 > 100 µM | OVCAR-8 > 100 µM | COLO 205 > 100 µM | RPMI-8226 > 100 µM | SF-539 > 100 µM | 786-0 > 100 µM | SN12C > 100 µM | K562 31 µM | HOP-62 > 100 µM | OVCAR-4 98.9 µM | Malme-3M 66.4 µM

N#CCC(=O)NC1C2CC3CC(C2)CC1C3 (stereo not given)
inactive: U-251 16.2 µM | HCC 2998 18 µM | OVCAR-3 18.1 µM | SNB-75 17.2 µM | EKVX 18.9 µM | LOX IMVI 10.7 µM | UACC-62 15.1 µM | NCI-H23 16.6 µM | SW-620 25.4 µM | OVCAR-8 17.5 µM | COLO 205 19.3 µM | RPMI-8226 34.6 µM | SF-539 18 µM | 786-0 19.5 µM | SN12C 16.1 µM | K562 26.5 µM | HOP-62 23.4 µM | OVCAR-4 21.2 µM | Malme-3M 20.3 µM

CC(=O)N1c2ccccc2C23CCN4CC5=CCOC(O)C(C5CC42)C13 (stereo not given)
inactive: U-251 > 100 µM | HCC 2998 > 100 µM | OVCAR-3 > 100 µM | SNB-75 > 100 µM | EKVX > 100 µM | LOX IMVI > 100 µM | UACC-62 > 100 µM | NCI-H23 > 100 µM | SW-620 > 100 µM | OVCAR-8 > 100 µM | COLO 205 > 100 µM | RPMI-8226 > 100 µM | SF-539 > 100 µM | 786-0 > 100 µM | SN12C > 100 µM | K562 31.9 µM | OVCAR-4 > 100 µM | Malme-3M > 100 µM

C/C(CC(=O)Nc1cccc([N+](=O)[O-])c1)=N/NC(N)=S
inactive: U-251 > 100 µM | HCC 2998 > 100 µM | OVCAR-3 > 100 µM | SNB-75 > 100 µM | EKVX > 100 µM | LOX IMVI > 100 µM | UACC-62 > 100 µM | NCI-H23 > 100 µM | SW-620 > 100 µM | OVCAR-8 > 100 µM | COLO 205 > 100 µM | RPMI-8226 > 100 µM | SF-539 > 100 µM | 786-0 > 100 µM | K562 > 100 µM | HOP-62 > 100 µM | Malme-3M > 100 µM

Cc1ccc(S(=O)(=O)N/N=C(\c2nc3ccc([N+](=O)[O-])cc3[nH]c2=O)C(O)c2ccc([N+](=O)[O-])cc2)cc1 (stereo not given)
inactive: U-251 > 100 µM | HCC 2998 28.2 µM | OVCAR-3 > 100 µM | SNB-75 > 100 µM | EKVX > 100 µM | LOX IMVI 23.8 µM | UACC-62 85.5 µM | NCI-H23 > 100 µM | SW-620 > 100 µM | OVCAR-8 > 100 µM | COLO 205 > 100 µM | RPMI-8226 21.6 µM | SF-539 > 100 µM | 786-0 > 100 µM | SN12C > 100 µM | K562 29.2 µM | HOP-62 51.2 µM | OVCAR-4 68.9 µM | Malme-3M > 100 µM

CC(=O)NC(CCCCNC(=O)N(C)N=O)C(=O)NCc1ccccc1 (stereo not given)
inactive: U-251 > 100 µM | HCC 2998 > 100 µM | OVCAR-3 > 100 µM | SNB-75 43.4 µM | EKVX > 100 µM | LOX IMVI > 100 µM | UACC-62 > 100 µM | NCI-H23 > 100 µM | SW-620 > 100 µM | OVCAR-8 > 100 µM | COLO 205 > 100 µM | RPMI-8226 > 100 µM | SF-539 > 100 µM | 786-0 > 100 µM | SN12C > 100 µM | K562 > 100 µM | HOP-62 > 100 µM | OVCAR-4 > 100 µM | Malme-3M > 100 µM

CS[C@]12[C@@H]3C(=O)N(C)C(=O)[C@@H]3[C@](C)(C(=O)N1C)C(=O)N2c1ccccc1
inactive: U-251 > 100 µM | HCC 2998 > 100 µM | OVCAR-3 > 100 µM | SNB-75 > 100 µM | EKVX > 100 µM | LOX IMVI > 100 µM | UACC-62 > 100 µM | NCI-H23 > 100 µM | SW-620 > 100 µM | OVCAR-8 > 100 µM | COLO 205 > 100 µM | RPMI-8226 > 100 µM | SF-539 > 100 µM | 786-0 > 100 µM | SN12C > 100 µM | HOP-62 > 100 µM | OVCAR-4 > 100 µM | Malme-3M > 100 µM

CC(=O)NNc1nc(C)c(C(/C=C/c2ccc(/C=C/C(=N\NC(=O)c3ccncc3)c3sc(NNC(C)=O)nc3C)cc2)=N/NC(=O)c2ccncc2)s1
inactive: U-251 > 100 µM | HCC 2998 > 100 µM | OVCAR-3 > 100 µM | SNB-75 > 100 µM | EKVX > 100 µM | LOX IMVI > 100 µM | UACC-62 > 100 µM | NCI-H23 > 100 µM | SW-620 > 100 µM | OVCAR-8 > 100 µM | COLO 205 > 100 µM | RPMI-8226 > 100 µM | SF-539 > 100 µM | 786-0 > 100 µM | SN12C > 100 µM | K562 > 100 µM | HOP-62 > 100 µM | Malme-3M > 100 µM

CN(C)CCCNc1nnc(NCCCN(C)C)c2c(=O)c3sccc3[nH]c12
inactive: U-251 22.2 µM | HCC 2998 6.68 µM | OVCAR-3 14.2 µM | SNB-75 6.73 µM | EKVX 8.91 µM | LOX IMVI 14 µM | UACC-62 14.2 µM | NCI-H23 10.8 µM | SW-620 4.56 µM | OVCAR-8 3 µM | COLO 205 2.82 µM | RPMI-8226 9.02 µM | SF-539 5.51 µM | 786-0 4.59 µM | SN12C 3.19 µM | K562 3.48 µM | HOP-62 5.77 µM | OVCAR-4 5.42 µM | Malme-3M 15.5 µM

O=C1c2ccccc2C(=O)c2cc3c(cc21)C[S+]([O-])C3
inactive: U-251 > 100 µM | HCC 2998 > 100 µM | OVCAR-3 > 100 µM | SNB-75 > 100 µM | EKVX > 100 µM | LOX IMVI > 100 µM | UACC-62 > 100 µM | NCI-H23 > 100 µM | SW-620 > 100 µM | OVCAR-8 > 100 µM | COLO 205 > 100 µM | RPMI-8226 > 100 µM | SF-539 > 100 µM | 786-0 > 100 µM | SN12C 20 µM | K562 > 100 µM | HOP-62 > 100 µM | OVCAR-4 > 100 µM | Malme-3M > 100 µM
